Where a chain is given by its changes, count along the chain named.
Assays:
isoMnSOD [1] = experiment: Drug inhibition method: peroxidative activity of isoMnSOD on PVDF strips (Example 4); conditions: 1 μM test compound in TBS, 30 minutes; pancreatic mitochondria native extracts on PVDF; 1 mM H2O2, luminol; FIG. 4
Procedure: Each test compound was prepared by mixing 5 μL of a 1 mM test compound stock solution in ethanol with 5 μL of 0.1 M KOH, followed by the addition of 5 ml of TBS for a final concentration of 1 μM test compound. Equal amounts of native protein extracts from pancreatic mitochondria (obtained according to the protocol of Example 5) were loaded in separate wells and resolved in a 7% PAGE gel without SDS, electrotransferred to PVDF and divided into strips. Each PVDF strip was incubated with 1 μM of test compound in TBS for 30 minutes, washed twice in TBS for 20 minutes, and the peroxidative activity of isoMnSOD was measured by incubation of each strip with 1 mM H2O2 in 0.4 ml of the luminol solution contained within the Femtomole chemiluminescence assay kit (Pierce) and exposed to x-ray film (FIG. 4).
All procedures were carried out at 4° C. Mitochondria were obtained from a liquid nitrogen powder of one pig pancreas (˜8 g), which was resuspended in 15 ml of buffer A containing following protease inhibitors: 1 μg/ml aprotinin, 1 μg/ml pepstatin A, 1 μg/ml chymostatin A, 2 μg/ml leupeptin, 2 μM benzamide hydrochloride, and 1 μM phenylmethylsulfonyl fluoride. Tissue was broken with a Potter homogenizer and the homogenate was centrifuged for 10 min at 800 g to remove cell debris. The supernatant was centrifuged at 10,000 g from 15 min to recover mitochondria. The mitochondrial pellet was washed twice with a hand held Dounce homogenizer and mitochondria were stored frozen. Mitochondria were lysed by slowly adding 1 ml of M-Per (Pierce) containing 1/10 vol 5M NaCl and 1/10 vol Buffer A. The mitochondrial lysate was subsequently clarified by centrifugation for 10 min at 2000 g.

[2] = system: mitochondrial peroxidase activity (isoMnSOD); experiment: Peroxidative assay (ROS-activity blot) of mitochondrial extracts from treated pancreatic explants (Example 12); format: cell-based, pig; conditions: pancreatic explant cultured 1 hr at 37° C. with equal volume of 2 μM compound, FIG. 1
Procedure: F10 medium was used throughout the procedure. Pancreas (8 grams) from a 3 kilo pig was minced, washed twice, and 1 g of tissue was resuspended in 5 ml of F10 medium. […] Explants were stored frozen at −70° C. Tissue was homogenized in Buffer A at 4° C. and mitochondria was isolated by differential centrifugation and stored frozen at −70° C. Peroxidative assay of native mitochondrial extracts analyzed by the ROS-activity blot.

isoMnSOD [3] = experiment: Inhibition of pro-oxidant activity of isoMnSOD, at least one of the assays of the Examples; conditions: according to at least one of the assays provided in the Examples
[4] = system: PC12 neuroendocrine cell line; experiment: Hydrogen peroxide-mediated cell death, Live/Dead assay (Example 21); format: cell-based; conditions: PC12 preincubated with 4 μM for 1 hr, then 1 mM hydrogen peroxide, 20 hrs; FIG. 8
Procedure: Neuroendocrine cell line, PC12, was cultured in DMEM medium containing 10% FBS on plates treated with collagen. Freshly passed cells (1×10(7) cells) were preincubated with 4 μM 2-(3,4-dihydroxy-phenyl)-N-heptadec-8-enyl-acetamide (IV), 2-(2,5-dihydroxy-phenyl)-N-heptadec-8-enyl-acetamide (V) (containing about 30% impurity), or other compound for 1 hr and then treated with 1 mM hydrogen peroxide. After 20 hrs, cultures were examined by the Live/Dead assay (Molecular Probes).

isoMnSOD [5] = target: T1, isoMnSOD (Mus musculus, UniProt P09671, DEL77-115); experiment: isoMnSOD peroxidative activity, cerebellum mitochondrial extracts on nitrocellulose strips (Example 20); format: biochemical; conditions: 1 μM of compound, 30 min at room temperature; cerebellum of 4 week mice; 1 mM hydrogen peroxide, luminol; FIG. 7
T1 construct: Mitochondrial pellets were lysed in 1% CHAPS detergent; from tissue; host or cells: mouse cerebellum mitochondria
T1 sequence (P09671 with tags, fused parts or gaps DEL77-115): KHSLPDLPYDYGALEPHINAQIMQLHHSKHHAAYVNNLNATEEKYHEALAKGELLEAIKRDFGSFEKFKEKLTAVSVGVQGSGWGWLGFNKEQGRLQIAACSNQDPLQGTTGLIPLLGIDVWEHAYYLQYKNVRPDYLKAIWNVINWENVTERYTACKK
Procedure: Protein extracts containing isoMnSOD were prepared from cerebellum from 4 week mice by first forming a liquid nitrogen powder, resuspended with five volumes of ice-cold lysis buffer (in mM: 20 HEPES-KOH, pH 7.5, 10 KCl, 1.5 MgCl2, 1 DTT, 1 EDTA, 1 EGTA, and 0.1 PMSF) containing 70 mM mannitol and 250 mM sucrose and homogenizing with a Dounce homogenizer. Extract was centrifuged at 750 g for 10 min at 4° C. and the supernatant was then centrifuged at 10,000 g for 15 min at 4° C. to pellet the mitochondrial pellet, which was then stored frozen. Mitochondrial pellets were lysed in 1% CHAPS detergent containing 50 mM Tris-Cl, pH 8.0, 500 mM NaCl and then loaded onto a native 5% polyacrylamide gel. Protein concentration was measured by using the Bradford protein assay kit. After transfer to nitrocellulose, nitrocellulose strips were incubated with 1 μM of compound in 50 mM Tris-HCl, 50 mM NaCl, 5 mM EDTA, pH 8.0 for 30 min at room temperature, then washed extensively with incubation buffer alone. The peroxidative activity of isoMnSOD was measured using 100 of Femtomole luminol (Pierce) containing 1 mM hydrogen peroxide per nitrocellulose strip and exposed to x-ray film.

isoMnSOD [6] = target: T2, isoMnSOD (Rattus norvegicus, UniProt P07895, DEL77-115); experiment: Immunodetection of isoMnSOD in treated cerebella explants (Example 24); format: cell-based; conditions: cerebella explants of 4 week rat, one hour at 37° C., 5 μM OA-diHPAc; western immunoblot
T2 construct: Cerebella explants from one 4 week rat, strain WKY; from tissue; host or cells: rat (WKY) cerebellum explants
T2 sequence (P07895 with tags, fused parts or gaps DEL77-115): T1 sequence (P09671 with tags, fused parts or gaps DEL77-115) with A33T, A40V, T151S, E152Q, T155I, A156V
Procedure: Immuno detection of isoMnSOD and measurement of isoMnSOD (a) and measurement of caspase 9 cleavage (b) in cerebella explants from 4 week old rat cerebellum and treated with 2-(3,4-dihydroxy-phenyl)-N-heptadec-8-enyl-acetamide (IV). Cerebella explants from one 4 week rat, strain WKY, were incubated in aerated 4 mL of M199:MCDB 10% FBS and incubated one hour at 37° C. in a roller bottle for maximum oxygenation, with or without 5 μM OA-diHPAc. Explants were harvested, quick frozen, and then lysed in boiling SDS and 5% BME and protein extracts were separated in a 4-12% polyacrylamide gel (Novex) and examined by western immunoblot. […] The peptide sequence used as the antigen to form the MnSOD E2/E4 antibody is at the active site of isoMnSOD and modification of isoMnSOD by 2-(3,4-dihydroxy-phenyl)-N-heptadec-8-enyl-acetamide (IV) appears to block epitope recognition. RT/PCR analysis of the MnSOD mRNAs confirmed that the mRNA encoding isoMnSOD is present in treated explants.

[7] = system: AMP kinase phosphorylation at Thr172; experiment: Doxorubicin-induced activation of AMP kinase in heart explants, western immunoblot (Example 22); format: cell-based; conditions: rat heart explants
Procedure: Hearts from 4 week rats were excised and minced without trypsin in 50:50 medium M199:MCDB 10% FBA containing 5 mM Creatine, 2 mM L-carnitine and 5 mM taurine. Explants were incubated overnight at 37° C. in a 5% CO2 incubator untreated (Lane 1), with 1 mM doxorubicin (Lane 2), and with 1 mM doxorubicin and 4 μM 2-(3,4-dihydroxy-phenyl)-N-heptadec-8-enyl-acetamide (IV) (Lane 3). Explants were frozen at −70° C., liquid nitrogen powders were prepared and lysed and denatured in 2% SDS with 5% BME with boiling for 5 min. Protein extracts were examined by western immunoblotting using a rabbit monoclonal recognizing Phospho-AMP Kinase-α (Thr172) (CellSignal).
The AMP kinase was activated by an elevated AMP(high)/ATP(low) ratio due to cellular and environmental stress, such as heat shock, hypoxia and ischemia. Elevated AMP/ATP ratio and activation of AMPK by phosphorylation at Thr172 can also occur by uncoupling mitochondrial oxidative phosphorylation from respiration with oligomycin and thereby loss of mitochondrial ATP synthesis.

Rats = experiment: Doxorubicin-induced heart failure in rats (Example 23); format: in vivo, rat; conditions: IP 10 mg/kg doxorubicin, FIG. 10
Procedure: Rats were treated with IP injections of 10 mg/kg doxorubicin. Left Ventricular Developed Pressure (LVDP): Systolic Pressure-Diastolic Pressure, which is an indicator of ventricular systolic function; dP/dtmax: Maximal rate of pressure development, which is an indicator of ventricular systolic function; dP/dtmin Minimal rate of pressure development, which is an indicator of ventricular diastolic function.

[8] = target: T3, MnSOD-Exon3-deleted isoform (isoMnSOD) (Homo sapiens, UniProt P04179); experiment: Detection of inhibitors bound to isoMnSOD by combined immunoprecipitation/western blot (Example 13); format: binding; conditions: immunoprecipitation with anti-dopamine or anti-serotonin antibody, isoMnSOD detected; FIG. 2A, 2B
T3 sequence (P04179 25-183 isoform P04179-2 limits assumed): T1 sequence (P09671 with tags, fused parts or gaps DEL77-115) with A40V, H46Q, E66D, V75A, Q93R, R95H, S102P, T155M
Procedure: Covalent modification of the MnSOD-Exon3-deleted isoform was measured by a combined immunoprecipitation/western blot analysis. Immunoblots for detecting AA-DA, EPA-DA, DHA-DA, C18:4(ω-3)-DA adducts were performed using anti-dopamine rabbit polyclonal (Chemicon) and anti-serotonin goat polyclonal antibodies (ImmunoStar), respectively. After immunoprecipitating using an antibody against the inhibitor, isoMnSOD was detected as described above.

[9] = system: altMnSODreport reporter expression; experiment: Reporter gene system (altMnSODreport) to analyze compounds for toxicity (Example 17); format: cell-based; conditions: cells comprising the reporter gene system; written in present tense
Text: The test reporter system utilizes a recombinant DNA construct that contains an in frame fusion of a genomic fragment spanning MnSOD Exon 2 to Exon 4, but which also harbors a mutant MnSOD Exon 3, (i.e. frameshift mutation), to a B-galactosidase gene, or Green Fluorescence Protein (“altMnSODreport”). Alternative splicing and skipping of MnSOD (coding) Exon 3 will result in a fusion protein comprising a short stretch of MnSOD E2 and E4 coding sequences N-terminal to a reporter protein; the MnSODE2E4 amino acid sequence is 20 amino acids and should not interfere with the expression of the reporter. […]
Breast cancer cell line, MDA-MB-435, Her-2/neu over-expressing (ATCC), fibroblast cells lines NIH3T3 and B104, which are NIH3T3 cells transfected with the rat ErbB2/Her2 oncogene, and normal primary cells (Clonetics; rat cardiomyocytes, donated by Kathryn Maschhoff, MD PhD, Neonatology, University of Pennsylvania) are treated with doxorubicin alone and in combination with the rat ErbB2/Her2 17.6.4 monoclonal antibody, which downregulates the human and rat Her2 receptor (Zhang et al., 1999) (Oncogene), and Herceptin™ (Genentech). It is also determined if the Her2 mAbs induces isoMnSOD expression in untransfected cells and cells transfected with altMnSODreport. […]

isoMnSOD expression = experiment: Doxorubicin induction of isoMnSOD expression in adult heart explants, Western Blot (Example 9); format: cell-based, rat; conditions: 3 days, 0.1 nM to 1.0 μM Doxorubicin in AdvDMEM 2% FBS, FIG. 3
Procedure: Briefly, after rats (5 weeks old) were killed by decapitation, the hearts were aseptically excised and residual blood was removed. The heart was perfused in Joklik's medium (containing Joklik's minimal essential medium, 25 mmol/L glutamic acid, 30 mmol/L taurine, and 1 mmol/L adenosine) without recirculation on a modified Langendorff apparatus for approximately 10 minutes at 37° C. The perfusion was then continued for 30 minutes at the same temperature, with recirculation in Joklik's medium containing collagenase type II (100 U/mL). After perfusion, the ventricles were cut into small pieces and tritulated in 0.05% Trypsin/EDTA for 10 min. Cardiac explants were cultured overnight on laminin-coated (20 μg per well) 35-mm six-well plates in medium 199 containing 5% FBS, 5 mM creatine, 2 mM L-carnitine, and 5 mM taurine. Explants were treated with doxorubicin (Sigma) shortly after plating for 24 hrs at 1 mM.

Compound	inhibition of peroxidative activity of isoMnSOD (isoMnSOD [1])	inhibition of mitochondrial peroxidase activity [2]	inhibition of pro-oxidant activity of isoMnSOD (isoMnSOD [3])	Inhibition (isoMnSOD [5])	binding to isoMnSOD (covalent modification) [8]	further results
CC/C=C\C/C=C\C/C=C\C/C=C\C/C=C\CCCC(=O)NCCc1ccc(O)c(O)c1 [eicosapentaenoyl (EPA)-dopamine, eicosapentaenoyl dopamine]	inhibit peroxidative activity more significantly than the other compounds	did not inhibit peroxidase activity to the same effect	inhibit pro-oxidant activity of isoMnSOD			
CCCCCCCC/C=C\CCCCCCCNC(=O)Cc1ccc(O)c(O)c1 [2-(3,4-dihydroxy-phenyl)-N-heptadec-8-enyl-acetamide]				yes		Protection of hydrogen peroxide-mediated cell death [4]: Protection; antigenicity of isoMnSOD with MnSOD E2/E4 peptide antibody and MnSOD antibody (isoMnSOD [6]): loss of antigenicity with the MnSOD E21E4 peptide antibody but not with the MnSOD antibody; suppression of doxorubicin-induced AMP kinase activation ([7]; 1 mM doxorubicin and 4 μM compound overnight, FIG. 9 Lane 3): suppresses this activation; cardio protection of doxorubicin-induced heart failure (LVDP, dP/dtmax, dP/dtmin) (Rats): exerts cardio protection
C18:4(ω-3)-dopamine	inhibit peroxidative activity more significantly than the other compounds	inhibited the mitochondrial peroxidase activity	inhibit pro-oxidant activity of isoMnSOD		able to bind to isoMnSOD	
CCCCCCCC/C=C\CCCCCCCNC(=O)Cc1cc(O)ccc1O [2-(2,5-dihydroxy-phenyl)-N-heptadec-8-enyl-acetamide]				yes		
CCCCC/C=C\C/C=C\C/C=C\C/C=C\CCCC(=O)NCCc1c[nH]c2ccc(O)cc12 [arachidonoyl-serotonin, arachidonoyl serotonin]		inhibited the mitochondrial peroxidase activity	inhibit pro-oxidant activity of isoMnSOD		able to bind to isoMnSOD	
COc1cccc2c1C(=O)c1c(O)c3c(c(O)c1C2=O)C[C@@](O)(C(=O)CO)C[C@@H]3O[C@H]1C[C@H](N)[C@H](O)[C@H](C)O1 [Doxorubicin]						expression of altMnSOD report [9]: causes an increase; isoMnSOD expression (isoMnSOD expression): induced isoMnSOD expression; Activation of AMP kinase by phosphorylation at Thr172 ([7]; 1 mM doxorubicin overnight, FIG. 9 Lane 2): Activation
COC1=C(OC)C(=O)C(CCCCCCCCCCO)=C(C)C1=O [Idebenone]				no		
Arachidonic acid-biotinimide				yes		
Prostaglandin A1-biotinimide				yes		
CC/C=C\C/C=C\C/C=C\C/C=C\C/C=C\C/C=C\CCC(=O)NCCc1ccc(O)c(O)c1 [docosahexaenoyl (DHA)-dopamine, docosahexaenoyl dopamine]	inhibit peroxidative activity more significantly than the other compounds	inhibited the mitochondrial peroxidase activity	inhibit pro-oxidant activity of isoMnSOD		able to bind to isoMnSOD	

— US8426644B2, “Compositions and methods for inhibiting an isoform of human manganese superoxide dismutase” (MitoTek, LLC, priority 2005, dated 2013)
